Data set [1] can be described thus: Human intestinal S9 fraction in vitro stability assay (HInt). In kind it is in vitro ADME. To be noted: human intestinal S9 0.1 mg/mL, 1 μM test compound, pH 7.4, 37° C., substrate depletion. The text has this: In particular, the human intestinal S9 fraction in vitro stability assay (HInt) and human hepatocyte in vitro liver metabolism assay (HHep) provide important information regarding the clearance and metabolic activation of these compounds. The human intestinal S9 fraction in vitro stability assay provides a surrogate measure of compound metabolism as it travels across the gut wall; compounds with low CLint values more likely to enter the portal vein and be exposed to the liver. Likewise, the human hepatocyte in vitro liver metabolism assay provides a surrogate measure of compound metabolism when exposed to liver; compounds with high CLint values are more likely to be metabolically activated. For compounds such as prodrugs that release an active species on metabolic activation, high CLint values in human hepatocytes are desirable. Active compounds released in this way inhibit PCSK9 and show improved atherosclerotic properties by increased exposure of the active metabolite in the liver.
Human Intestinal S9 Fraction In Vitro Stability Assay (Hint)
In vitro stability of test compounds in human intestinal S9 fraction was determined by a substrate depletion approach. Frozen PMSF-free human intestinal S9 (BD Gentest) was thawed on wet ice and diluted to the test concentration of 0.1 mg/mL in 100 mM potassium phosphate buffer pH 7.4. Aliquots of diluted intestinal S9 (495 μL, n=2) were added to tubes in a dry heat bath and pre-warmed for 5 min at 37° C. Test compounds were dissolved in DMSO at 30 mM, ordered from the TekCel at 10 mM, and further diluted to 0.1 mM in DMSO. To initiate the reaction, 5 μL of 0.1 mM DMSO stock solution was added to the pre-warmed intestinal S9. The final test compound concentration in the incubation was 1 μM. At each time point (0.25, 5, 10, 20, 40, and 60 min) a 50 μL sample of incubate was removed and transferred to a plate containing 200 μL acetonitrile with internal standard (2 ng/mL terfenadine). After collection of the final time point, sample plates were capped, vortexed, and centrifuged for 5 minutes at approximately 2000×g. 150 μL of supernatant was removed and transferred to a clean storage plate for direct LC-MS/MS analysis. LC-MS/MS analysis was conducted on a Triple Quad 5500 (AB Sciex) with two LC-20AD pumps and CBM-20 controller (Shimadzu) and CTC PAL autosampler (LEAP Technologies). The MS was operated in multiple reaction monitoring mode with simultaneous monitoring for test compound and internal standard. 5 μL of sample was injected on a Kinetex C18 30×2.1 mm column (Phenomenex) and eluted at 0.5 ml/min under the following conditions, where solvent A was water containing 0.1% formic acid and solvent B was acetonitrile containing 0.1% formic acid: hold initial conditions 90% A and 10% B for 0.8 min, ramp to 30% A and 70% B over 1 min, step to 5% A and 95% B over 0.05 min, hold at 5% A and 95% B for 0.15 min, return to initial conditions over 0.1 min, and hold for 0.4 min. Peak areas of test compound and internal standard were quantitated using Analyst 1.5 (AB Sciex) and the ratios of test compound peak area to internal standard peak area (area ratio) were calculated. The natural log of area ratio was plotted versus time and the portion of the curve representing the initial linear rate of test compound depletion was fit using linear regression (IDBS E-Workbook 9.4). The slope of this line was converted to half-life (t1/2=−LN2/slope). Half-life was used to calculate intrinsic apparent clearance (CLint=LN2/(t1/2*(mg protein/ml incubation))).

The test system of another data set is human PCSK9. The data set is described as follows: In vivo plasma PCSK9 lowering in humanized PCSK9 mice. The arrangement: species or system mouse. The following applies: hPCSK9 mice, single oral dose 500 mg/kg, relative to hour zero (baseline) levels. An excerpt: A humanized PCSK9 mouse model was developed to assess compound activity in vivo. This model was established by first generating a transgenic mouse containing the full-length human PCSK9 gene and its promoter through pronuclear injection of the bacterial artificial chromosome (BAC), RP11-627J9, into C57B16J mice. Mice containing the human PCSK9 transgene were then bred with PCSK9 knockout mice on a 129/C57BL6J background (Rashid S, Curtis D E, Garuti R, et al. Decreased plasma cholesterol and hypersensitivity to statins in mice lacking Pcsk9. Proc Natl Acad Sci USA 2005; 102(15):5374-9). […] For example, ethyl (S)-1-{5-[4-(4-{(3-chloropyridin-2-yl)[(3R)-piperidin-3-yl]carbamoyl}-2-fluorophenyl)-1-methyl-1H-pyrazol-5-yl]-1H-tetrazol-1-yl}ethyl carbonate (the parent molecule) was dosed orally and plasma and liver concentrations were measured for the metabolite, N-(3-chloropyridin-2-yl)-3-fluoro-4-[1-methyl-5-(2H-tetrazol-5-yl)-1H-pyrazol-4-yl]-N-[(3R)-piperidin-3-yl]benzamide. Quantitation of human plasma PCSK9 was performed using a commercially available sandwich ELISA kit (R&D Systems, DPC900) incorporating a horse radish peroxidase (HRP) conjugated secondary antibody (R&D Systems, DPC900) to generate a colorimetric signal proportional to PCSK9 concentration per the manufacturer's protocol. […]

The structures appear in SMILES notation. Where only a bound is given, the exact number is not on record here.

The molecule `CCOC(=O)O[C@@H](C)n1nnnc1-c1c(-c2ccc(C(=O)N(c3ncccc3C)[C@@H]3CCCNC3)cc2)cnn1C` [Example 5a, ethyl (S)-1-{5-[1-methyl-4-(4-{(3-methylpyridin-2-yl)[(3R)-piperidin-3-yl]carbamoyl}phenyl)-1H-pyrazol-5-yl]-1H-tetrazol-1-yl}ethyl carbonate] displayed a microsomal CLint at 1 μM in data set [1] below 57.8 µL/min/mg.

Consider `CCOC(=O)O[C@@H](C)n1nnnc1-c1c(-c2ccc(C(=O)N(c3ncccc3Cl)[C@@H]3CCCNC3)nc2)cnn1C` [Example 10, ethyl (S)-1-{5-[4-(6-{(3-chloropyridin-2-yl)[(3R)-piperidin-3-yl]carbamoyl}pyridin-3-yl)-1-methyl-1H-pyrazol-5-yl]-1H-tetrazol-1-yl}ethyl carbonate], for which the microsomal CLint at 1 μM in data set [1] is below 57.8 µL/min/mg.

Take `CCOC(=O)O[C@@H](C)n1nnnc1-c1c(-c2ccc(C(=O)N(c3ncccc3Cl)[C@@H]3CCCNC3)cc2)cnn1C` [Example 6, ethyl (S)-1-{5-[1-methyl-4-(4-{(3-chloropyridin-2-yl)[(3R)-piperidin-3-yl]carbamoyl}phenyl)-1H-pyrazol-5-yl]-1H-tetrazol-1-yl}ethyl carbonate]: in the data set with human PCSK9, the “Percent Plasma PCSK9 Lowering at 4 hours” value amounted to 71%. Moreover, in data set [1], the microsomal CLint at 1 μM is below 57.8 µL/min/mg.

Consider `CCOC(=O)O[C@@H](C)n1nnnc1-c1c(-c2ccc(C(=O)N(c3ncccc3C)[C@@H]3CCCNC3)cc2F)cnn1C` [Example 8, ethyl (S)-1-{5-[4-(4-{(3-methylpyridin-2-yl)[(3R)-piperidin-3-yl]carbamoyl}-2-fluorophenyl)-1-methyl-1H-pyrazol-5-yl]-1H-tetrazol-1-yl}ethyl carbonate], for which the microsomal CLint at 1 μM in data set [1] is 116 µL/min/mg.

In turn, `CCOC(=O)O[C@H](C)n1nnnc1-c1c(-c2ccc(C(=O)N(c3ncccc3Cl)[C@@H]3CCCNC3)cc2F)cnn1C` [Example 11, ethyl (R)-1-{5-[4-(4-{(3-chloropyridin-2-yl)[(3R)-piperidin-3-yl]carbamoyl}-2-fluorophenyl)-1-methyl-1H-pyrazol-5-yl]-1H-tetrazol-1-yl}ethyl carbonate] showed a microsomal CLint at 1 μM in data set [1] of 620 µL/min/mg.

For the molecule `CCOC(=O)O[C@@H](C)n1nnnc1-c1c(-c2ccc(C(=O)N(c3ncccc3Cl)[C@@H]3CCCNC3)cc2F)cnn1C` [Example 7, ethyl (S)-1-{5-[4-(4-{(3-chloropyridin-2-yl)[(3R)-piperidin-3-yl]carbamoyl}-2-fluorophenyl)-1-methyl-1H-pyrazol-5-yl]-1H-tetrazol-1-yl}ethyl carbonate], the “Percent Plasma PCSK9 Lowering at 4 hours” value with human PCSK9 was 72%. In data set [1], this molecule gave a microsomal CLint at 1 μM below 82.9 µL/min/mg.

Regarding `CCOC(=O)O[C@H](C)n1nnnc1-c1c(-c2ccc(C(=O)N(c3ncccc3C)[C@@H]3CCCNC3)cc2)cnn1C` [Example 5b, ethyl (R)-1-{5-[1-methyl-4-(4-{(3-methylpyridin-2-yl)[(3R)-piperidin-3-yl]carbamoyl}phenyl)-1H-pyrazol-5-yl]-1H-tetrazol-1-yl}ethyl carbonate], the microsomal CLint at 1 μM in data set [1] was 86.9 µL/min/mg.

With `CCOC(=O)O[C@@H](C)n1nnnc1-c1c(-c2ccc(C(=O)N(c3ncccc3C)[C@@H]3CCCNC3)nc2)cnn1C` [Example 9, ethyl (S)-1-{5-[1-methyl-4-(6-{(3-methylpyridin-2-yl)[(3R)-piperidin-3-yl]carbamoyl}pyridin-3-yl)-1H-pyrazol-5-yl]-1H-tetrazol-1-yl}ethyl carbonate], in data set [1], the microsomal CLint at 1 μM is below 57.8 µL/min/mg.

As a reminder, the microsomal CLint is the capacity of the preparation to metabolise the compound, expressed as a volume cleared per time. High values mean rapid turnover, low ones slow turnover.

The values are drawn from patent US20160102074A1, “SUBSTITUTED AMIDE COMPOUNDS” (PFIZER INC., priority 2014, published 2016).
